According to patent US20120077732A1, “CYCLIC PEPTIDES AND USES THEREOF” (SYDNEY WEST AREA HEALTH SERVICE, priority 2008, published 2012):

Legend:
in vitro = assay type: cell-based
Procedure: (§1) First, to determine if the activity of C1 was due to toxicity, 2B4.11 T-cells (1×10^5) were cultured in microtiter wells in the presence of the peptide conjugates at 50 μM. After 20 hours, 30 μL were removed and cells assessed for viability by trypan blue staining. The remaining culture was then pulsed with 0.5 μCi [^3H] thymidine for 5 h, harvested, and quantitated for [^3H] thymidine uptake to assess cellular proliferation.

2B4.11 T-cells = experiment: in vitro; assay type: cell-based; conditions: 50 μM, relative to 0.5% DMSO control; ±SD
Procedure: as §1

2B4.11 cells [1] = experiment: T-cell activation with 2C11-145 antibody (CD3 crosslinking), IL-2 production; assay type: cell-based; conditions: CD3 crosslinking with 2C11-145; 50 μM; relative to DMSO control; ±SD
Procedure: To analyse the mode of action of C1, T-cells were activated using 2C11-145 and H57-597 antibodies. The H57-597 antibody is directed against the TCRβ chain, and when administered at sub-optimal doses in conjunction with accessory cells (LK35.2), is capable of activating T cells. […] C1 was added to give a final reaction volume of 250 μL at 50 μM and 0.5% DMSO. […] T cells were also activated using the 2C11-145 antibody to crosslink the CD3 chains of the TCR, thereby bypassing the antigen recognition sub-units of the TCRα/β.

2B4.11 cells [2] = assay type: cell-based; conditions: 50 μM
Wistar rats = experiment: Adjuvant-induced arthritis model; assay type: in vivo; conditions: given subcutaneously, four daily injections of 6 mg at onset of arthritis
[3] = Surface plasmon resonance binding to DMPC liposomes; conditions: SPR
Procedure: (§2) Model membranes composed of zwitterionic and anionic phospholipids were prepared as previously described (Bender et al., 2004). Briefly, DMPC and DMPG were dissolved in dry chloroform and chloroform/methanol (2:1) respectively to give 10 mg/ml solutions. […] The solution was sonicated in an ultrasonic bath for 20 min. Eight cycles of freeze/thawing was followed by extrusion through polycarbonate filters, first 100 nm (21 times) then 50 nm pore diameter (21 times), using a Lipofast apparatus (Avestin, Ottawa, Canada) and SUVs were used immediately. SPR was carried out on a BIAcore 2000 instrument using Pioneer Sensor Chip L1 and HEPES (HBS-N, Biacore, Upssala, Sweden) as running buffer. The chip surface was cleaned with 40 mM octyl glycoside (30 μl, 10 μl/min) followed liposomes (SUV) (100 μl, 5 μl/min). 10 mM NaOH (40 μl, 10 μl/min) removed any multilamellar vesicles from the surface before injecting the lipopeptide solutions (100 μl, 5 μl/min). The dissociation stage was 1200 sec. […] All SPR experiments were run at 25° C. and all analyses were performed using the BIAevaluation software (Biacore, Uppsala, Sweden). Lipopeptide binding was expressed as the difference in signal between points before sample injection and after dissociation.

[4] = Surface plasmon resonance binding to DMPG liposomes; conditions: SPR, L1 sensor chip, 50 μM, 25° C.
Procedure: as §2

trypsin = assay type: in vitro ADME
Procedure: The effect of trypsin on C1 and CP was studied by incubating each peptide (1 μg/μl) in methanol and ammonium bicarbonate (0.1M) with 125 ng/μl of trypsin at pH 8 and 37° C. The effect of trypsin after incubation with CP and C1 was followed by mass spectrometry. […]

S. pneumoniae = experiment: Standard disk susceptibility testing (NCCLS), S. pneumoniae; assay type: cell-based
Procedure: The synthetic C1 peptide and its analogues were tested using Standard disk susceptibility testing by National Committee for […] Laboratory Standards (NCCLS) against, S. aureus, E. coli and S. pneumoniae. […]

[5] = test system: allergic mice (OVA model); assay type: in vivo; conditions: 200 μg subcutaneous; compared to historical OVA/OVA mice
Procedure: The effect on the inflammatory response of the 200 μg dose and subcutaneous route of administration of cyclic C1 peptide determined in Example 8 was tested with the OVA (ovalbumin) model (Temelkovski, et al. (1998); Foster, et al. (2000); Asquith et al (2008)) according to the following study design. At the endpoint mice were euthanased and BALF was obtained by cannulating the trachea and flushing the airways with two 0.8 ml volumes of Hank's Balanced Salt Solution (HBSS). Recovered cells were treated with erythrocyte lysis buffer, cytospins prepared and stained with May-Grunwald Giemsa and differential leukocyte counts performed based on morphological criteria (min 200 cells counted/slide). Statistical analysis was performed using a student's unpaired t-test. Results were compared to historical data.

allergic mice (OVA/OVA) [6] = experiment: Allergic airways disease (OVA) model: local and systemic OVA-specific cytokine production; assay type: in vivo; set-up: key to Spleen OVA-stimulated IL-5 / Spleen OVA-stimulated IL-13 / LN OVA-stimulated IL-5 / LNOVA stimulated IL-13: nc: no change; ↑: increase; ↓: decrease
allergic mice (OVA/OVA) [7] = experiment: Allergic airways disease (OVA) model: airways hyperreactivity to methacholine; assay type: in vivo; set-up: key to Airway Resistance / Airway Compliance: nc: no change; ↑: increase; ↓: decrease
NOD mice = experiment: Treatment of NOD mice, blood glucose level / diabetes; assay type: in vivo; conditions: i.p. injections of 0.1 mg
Procedure: NOD mice were fasted for at least 1.5 h prior to blood glucose level (BGL) measurements. In the morning, all mice were treated with intraperitoneal (i.p.) injections of 0.1 mg C1 and BGLs were taken. Control mice received 0.2 mL of water.

2B4 cells = experiment: T-cell activation with PMA and ionomycin, IL-2 production; conditions: PMA 40 ng/mL + ionomycin 5 μg/mL; 50 μM; ±SD
Procedure: Further, T-cells were activated using PMA and ionomycin stimulation. The method employed to activate T cells utilized the protein kinase C activating PMA in combination with the calcium ionophore, ionomycin. In combination, PMA/ionomycin effectively activate T cells downstream from the TCR. Phorbol 12-myristate 13-acetate (PMA) (40 ng/mL) and ionomycin (5 μg/mL) were added to 2B4 cells (5×10^4) and incubated with each CP-conjugate at 50 μM in 0.5% DMSO in 96-well, round bottom microtiter plates for 24 h at 37° C. with 5% CO2 in a total volume of 250 μL. Supernatants were then collected and analysed for IL-2 production. All CP-conjugates were tested simultaneously in triplicate wells, and each experiment was performed on three separate occasions.

[8] = 200 μg s.c. during challenge, allergic mice
[9] = 200 μg/100 μl s.c. during OVA challenge, compared to OVA/OVA alone

## CC(C)C[C@@H]1NC(=O)[C@@H](CC(C)C)NC(=O)[C@H](CCCNC(=N)N)NC(=O)[C@@H](CC(C)C)NC(=O)CNC(=O)[C@@H](C(C)C)NC(=O)[C@H](CCCCN)NC(=O)[C@@H](CC(C)C)NC(=O)[C@H](CC(C)C)NC(=O)[C@@H](CC(C)C)NC1=O [C1, LDRLDLLDLLDKVDG]
In vitro
  viability at 20 h, 50 µM: 86.6%
2B4.11 T-cells
  cellular proliferation ([3H] thymidine uptake): 62.56%±14.25
2B4.11 cells [1]
  % IL-2 production: 50.00%+/−15.79
2B4.11 cells [2]
  IL-2 production: 71.42%+/−14.275D
Wistar rats
  effect in reducing inflammation (total foot swelling): comparable effect to cyclosporin
[3]
  binding affinity to DMPC model membrane relative to CP: approximately 10 fold
[3]; L1 sensor chip, 50 μM, 25° C.
  binding to DMPC (zwitterionic) liposomes: bound much stronger
[3]; model membranes
  binding relative to all the other analogues examined (with the exception of C2): > 10 fold
[4]
  binding to DMPG (anionic) liposomes: bound much stronger
trypsin
  stability without trypsin, 3 hours (Mass spectroscopy-MS): No degradation product
  stability without trypsin, 24 hours (MS): No degradation product
S. pneumoniae; peptide 10 μg/ml
  antimicrobial activity, S. pneumoniae: −ve
S. pneumoniae; peptide 100 μg/ml
  antimicrobial activity, S. pneumoniae: −ve
S. pneumoniae; peptide 1000 μg/ml
  antimicrobial activity, S. pneumoniae: −ve
[5]
  eosinophils in BALF: decrease
  macrophages in BALF: significant reduction
  total inflammatory cells in BALF: reduction
Allergic mice (OVA/OVA) [6]; [8]
  locally produced (peribronchial lymph node derived) IL-5: significant decrease
  locally produced (peribronchial lymph node derived) IL-13: significant decrease
  systemic (spleen derived) IL-5: significant decrease
  systemic (spleen derived) IL-13: significant decrease
Allergic mice (OVA/OVA) [6]; [9]
  LN OVA-stimulated IL-5: ↓
  LNOVA stimulated IL-13: ↓
  Spleen OVA-stimulated IL-5: ↓
  Spleen OVA-stimulated IL-13: ↓
Allergic mice (OVA/OVA) [7]; [8]
  airway resistance in response to methacholine challenge: no significant effect
  dynamic compliance in response to methacholine challenge: no significant effect
Allergic mice (OVA/OVA) [7]; [9]
  Airway Compliance: ↑
  Airway Resistance: nc
NOD mice
  blood glucose level control versus control group: more tightly controlled
NOD mice; preliminary results, control 7/21
  mice that developed diabetes (BGL higher than 15 mM on two consecutive days): 2/7
2B4 cells
  IL-2 production relative to the DMSO control: 62.83%+/−17.60
